Measured values as given in US6849612B2, “Oligonucleotide modulation of cell adhesion” (ISIS Pharmaceuticals, Inc., priority 1993, dated 2005).
Strand notation (5' to 3'): a small letter for the sugar, then the base; units joined by * are phosphorothioate-linked, units joined directly phosphodiester-linked; [ ] holds rarer units or linkages, { } end groups; capitals alone tell only the bases. d = 2'-deoxy (DNA)

Test system: C8161 human melanoma cells
Experiment: Experimental metastasis assay of oligonucleotide-treated C8161 cells in athymic nude mice
Assay type: in vivo
Description: To evaluate the role of ICAM-1 in metastasis, experimental metastasis assays were performed by injecting 1×10^5 C8161 cells into the lateral tail vein of athymic nude mice. […] Assoc. Cancer Res. 1990, 13, 353].
After 4 weeks, mice were sacrificed, organs were fixed in Bouin's fixative and metastatic lesions on lungs were scored with the aid of a dissecting microscope. Four-week-old female athymic nude mice (Harlan Sprague Dawley) were used. Animals were maintained under the guidelines of the NIH. Groups of 4-8 mice each were tested in experimental metastasis assays.
Treatment of C8161 cells with antisense oligonucleotides ISIS 1570 and ISIS 2302, complementary to ICAM-1, was performed in the presence of the cationic lipid, Lipofectin (Gibco/BRL, Gaithersburg, Md.). Antisense oligonucleotides were synthesized as described in Example 3. Cells were seeded in 60 mm tissue culture dishes at 10^6 cells/ml and incubated at 37 °C for 3 days, washed with OPTI-MEM (Gibco/BRL) 3 times and 100 μl of OPTI-MEM medium was added to each well. 0.5 μM oligonucleotide and 15 μg/ml lipofectin were mixed at room temperature for 15 minutes. 25 μl of the oligonucleotide-lipofectin mixture was added to the appropriate dishes and incubated at 37° C. for 4 hours. The oligonucleotide-lipofectin mixture was removed and replaced with DME-F12 medium containing 10% fetal calf serum. After 4 hours, 500 U/ml TNF-α was added to the appropriate wells and incubated for 18 hours at which time cells were removed from the plates, counted and injected into athymic nude mice.

## ISIS 1570: phosphorothioate, human ICAM-1 AUG Codon (64-81), SEQ ID NO 1, TGGGAGCCATAGCGAGGC (antisense dT*dG*dG*dG*dA*dG*dC*dC*dA*dT*dA*dG*dC*dG*dA*dG*dG*dC)
C8161 cells treated with 0.5 μM oligonucleotide + Lipofectin + TNF-α, Lipofectin + TNF-α 81 ± 8
  No. Lung Metastases per Mouse (Mean ± S.E.M.): 49 ± 6
C8161 cells treated with 0.5 μM oligonucleotide + Lipofectin, no TNF-α, Lipofectin only 64 ± 13
  No. Lung Metastases per Mouse (Mean ± S.E.M.): 38 ± 15
